Test results: PubChem BioAssay AID330 (DTP/NCI, 2004)
Where “and” joins values, the source holds several entries; their conditions need not be identical. Identical values can stand only once. Toxic doses and inconclusive results are not listed. How the source made its calls: active means survival T/C of 150% or more; inactive means T/C below 125% in these data.

Tested on: P388 leukemia ip, CD2F1 mice, survival T/C
Assay: NCI In Vivo Anticancer Drug Screen. Data for tumor model P388 Leukemia (intraperitoneal) in CD2F1 (CDF1) mice
Details: endpoint: median survival time, higher = longer survival
Outline: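 Mice carrying the transplanted tumor received test compound or vehicle. Survival was recorded in each group, and the value is the treated-group measurement divided by that of the vehicle-treated control group.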

[1] = dose: 60.0 mg/kg/injection, schedule: Q01DX005 (ip), vehicle: saline with Tween-80
[2] = dose: 120.0 mg/kg/injection, schedule: Q01DX005 (ip), vehicle: saline with Tween-80
[3] = dose: 240.0 mg/kg/injection, schedule: Q01DX005 (ip), vehicle: saline with Tween-80
[4] = dose: 25.0 mg/kg/injection, schedule: Q01DX009 (ip), vehicle: saline with Tween-80
[5] = dose: 50.0 mg/kg/injection, schedule: Q01DX009 (ip), vehicle: saline with Tween-80
[6] = dose: 100.0 mg/kg/injection, schedule: Q01DX009 (ip), vehicle: saline with Tween-80
[7] = dose: 50.0 mg/kg/injection, schedule: Q01DX009 (ip), vehicle: Klucel (hydroxypropylcellulose) (HPC)
[8] = dose: 100.0 mg/kg/injection, schedule: Q01DX009 (ip), vehicle: Klucel (hydroxypropylcellulose) (HPC)
[9] = dose: 200.0 mg/kg/injection, schedule: Q01DX009 (ip), vehicle: Klucel (hydroxypropylcellulose) (HPC)
[10] = dose: 50.0 mg/kg/injection, schedule: Q01DX005 (ip), vehicle: Klucel (hydroxypropylcellulose) (HPC)
[11] = dose: 200.0 mg/kg/injection, schedule: Q01DX009 (ip), vehicle: saline with Tween-80
[12] = dose: 100.0 mg/kg/injection, schedule: Q01DX009 (ip), vehicle: saline
[13] = dose: 50.0 mg/kg/injection, schedule: Q01DX005 (ip), vehicle: saline with Tween-80
[14] = dose: 100.0 mg/kg/injection, schedule: Q01DX001 (ip), vehicle: Klucel (hydroxypropylcellulose) (HPC)
[15] = dose: 200.0 mg/kg/injection, schedule: Q01DX001 (ip), vehicle: Klucel (hydroxypropylcellulose) (HPC)
[16] = dose: 60.0 mg/kg/injection, schedule: Q01DX005 (ip), vehicle: Klucel (hydroxypropylcellulose) (HPC)

Measured: T/C

O=C1c2ccccc2C(=O)N1C[P+](c1ccccc1)(c1ccccc1)c1ccccc1
inactive: dose: 0.78 mg/kg/injection, schedule: Q01DX009 (ip), vehicle: water 102 % of control | dose: 1.56 mg/kg/injection, schedule: Q01DX009 (ip), vehicle: water 106 % of control | dose: 3.13 mg/kg/injection, schedule: Q01DX009 (ip), vehicle: water 106 % of control | dose: 5.56 mg/kg/injection, schedule: Q01DX009 (ip), vehicle: water 123 % of control | dose: 25.0 mg/kg/injection, schedule: Q01DX009 (ip), vehicle: water 98 % of control

Cn1c(=O)cc2n(C)c3ccccc3n2c1=O
inactive: [1] 96 % of control | [2] 100 % of control | [3] 97 % of control

CC(C)(C)N1COc2cc3c(cc2C1)OCN(C(C)(C)C)C3
inactive: dose: 12.5 mg/kg/injection, schedule: Q01DX009 (ip), vehicle: saline with Tween-80 110 % of control | [4] 99 % of control | [5] 108 % of control | [6] 119 % of control

CN1C(=O)C(O)(c2c3c(c(C4(O)C(=O)N(C)c5ccccc54)c4c2OCO4)OCO3)c2ccccc21 (configuration not stated)
inactive: [1] 89 % of control | [2] 91 % of control | [3] 91 % of control

Cc1cc(O)c(N=Nc2cc(C)c(C)cc2[N+](=O)[O-])cc1C
inactive: [7] 109 % of control | [8] 109 % of control | [9] 101 % of control

COC(=O)C1=CCC[C@H]2C1(C)CCC(C)C21CC(c2ccoc2)OC1=O (some centres not stated)
inactive: dose: 3.5 mg/kg/injection, schedule: Q01DX005 (ip), vehicle: Klucel (hydroxypropylcellulose) (HPC) 106 % of control | dose: 7.0 mg/kg/injection, schedule: Q01DX005 (ip), vehicle: Klucel (hydroxypropylcellulose) (HPC) 91 % of control | dose: 14.0 mg/kg/injection, schedule: Q01DX005 (ip), vehicle: Klucel (hydroxypropylcellulose) (HPC) 95 % of control | dose: 28.0 mg/kg/injection, schedule: Q01DX005 (ip), vehicle: Klucel (hydroxypropylcellulose) (HPC) 91 % of control | [10] 92 % of control

O=C(O)CNC(=O)C(F)(F)F
inactive: [5] 93 % of control | [6] 91 % of control | [11] 95 % of control

CC(=O)CS(=O)(=O)c1ccc(NC(C)=O)cc1
inactive: dose: 50.0 mg/kg/injection, schedule: Q01DX009 (ip), vehicle: suspension in saline 105 % of control | dose: 100.0 mg/kg/injection, schedule: Q01DX009 (ip), vehicle: suspension in saline 94 % of control | dose: 200.0 mg/kg/injection, schedule: Q01DX009 (ip), vehicle: suspension in saline 101 % of control

CN(C)CC[CH2][Sn]([CH3])([Br])[Br]
inactive: dose: 1.56 mg/kg/injection, schedule: Q01DX009 (ip), vehicle: saline 100 % of control and 101 % of control

Nc1ccc(S(=O)(=O)F)cc1Cl
inactive: dose: 50.0 mg/kg/injection, schedule: Q01DX009 (ip), vehicle: saline 100 % of control | [12] 97 % of control | dose: 200.0 mg/kg/injection, schedule: Q01DX009 (ip), vehicle: saline 111 % of control

CCCCCCCC(=O)Nc1ccccc1CC
inactive: dose: 100.0 mg/kg/injection, schedule: Q04DX003 (ip), vehicle: other 100 % of control | dose: 200.0 mg/kg/injection, schedule: Q04DX003 (ip), vehicle: other 100 % of control | dose: 400.0 mg/kg/injection, schedule: Q04DX003 (ip), vehicle: other 95 % of control

CC(=O)c1c(O)cc(C)n(Cc2ccccc2)c1=O
inactive: [13] 99 % of control | dose: 100.0 mg/kg/injection, schedule: Q01DX005 (ip), vehicle: saline with Tween-80 100 % of control | dose: 200.0 mg/kg/injection, schedule: Q01DX005 (ip), vehicle: saline with Tween-80 99 % of control

CC(=O)OCC1OC(n2cc(F)c(=O)[nH]c2=O)CC1OC(C)=O (configuration not stated)
inactive: [5] 100 % of control | [6] 118 % of control | [11] 86 % of control

N#CC(CN1CCOCC1)CN1CCOCC1
inactive: [5] 95 % of control | [6] 101 % of control | [11] 96 % of control

CC1(C)CC(OP(=O)(OC2CC(C)(C)N(O)C(C)(C)C2)N2CC2)CC(C)(C)N1O
inactive: [14] 100 % of control | [15] 97 % of control | dose: 400.0 mg/kg/injection, schedule: Q01DX001 (ip), vehicle: Klucel (hydroxypropylcellulose) (HPC) 104 % of control

COc1cc(N(C)c2cc(=O)n(C)c(=O)[nH]2)ccc1C
inactive: dose: 12.5 mg/kg/injection, schedule: Q01DX005 (ip), vehicle: saline with Tween-80 101 % of control | dose: 25.0 mg/kg/injection, schedule: Q01DX005 (ip), vehicle: saline with Tween-80 101 % of control | [13] 100 % of control and 94 % of control

O=c1oc2nc(-c3ccccc3)[nH]c(=O)c2c(O)c1Cc1ccccc1
inactive: dose: 15.0 mg/kg/injection, schedule: Q01DX005 (ip), vehicle: Klucel (hydroxypropylcellulose) (HPC) 97 % of control | dose: 30.0 mg/kg/injection, schedule: Q01DX005 (ip), vehicle: Klucel (hydroxypropylcellulose) (HPC) 98 % of control | [16] 95 % of control and 96 % of control

CS(=O)(=O)C(=S)Sc1ccccc1
inactive: dose: 25.0 mg/kg/injection, schedule: Q01DX001 (ip), vehicle: saline with Tween-80 97 % of control | dose: 50.0 mg/kg/injection, schedule: Q01DX001 (ip), vehicle: saline with Tween-80 97 % of control

O=C(Cc1nc2ccc(Cl)cc2[nH]c1=O)c1ccncc1
inactive: [1] 94 % of control | [2] 100 % of control | [3] 119 % of control

Cc1nc2nnc(N)n2nc1C
inactive: dose: 100.0 mg/kg/injection, schedule: Q04DX003 (ip), vehicle: Klucel (hydroxypropylcellulose) (HPC) 106 % of control | dose: 200.0 mg/kg/injection, schedule: Q04DX003 (ip), vehicle: Klucel (hydroxypropylcellulose) (HPC) 97 % of control | dose: 400.0 mg/kg/injection, schedule: Q04DX003 (ip), vehicle: Klucel (hydroxypropylcellulose) (HPC) 96 % of control

Cc1ccc(N)c(N)c1
inactive: [6] 99 % of control | [12] 107 % of control | [11] 109 % of control | dose: 400.0 mg/kg/injection, schedule: Q01DX009 (ip), vehicle: saline with Tween-80 123 % of control

Clc1nc(-c2ccccc2)ns1
inactive: dose: 25.0 mg/kg/injection, schedule: Q01DX009 (ip), vehicle: Klucel (hydroxypropylcellulose) (HPC) 86 % of control | [7] 106 % of control | [8] 102 % of control | [9] 104 % of control

CCOc1ccc(C2c3ccc(OC)cc3OC(C)(C)C2c2ccccc2)cc1[N+](=O)[O-] (configuration not stated)
inactive: [10] 101 % of control | dose: 100.0 mg/kg/injection, schedule: Q01DX005 (ip), vehicle: Klucel (hydroxypropylcellulose) (HPC) 99 % of control | dose: 200.0 mg/kg/injection, schedule: Q01DX005 (ip), vehicle: Klucel (hydroxypropylcellulose) (HPC) 95 % of control

CC(C)C1=CC23CCC4C(C)(C(=O)O)CCCC4(C)C2CC1C(C(=O)NCCCN(C)C)C3C(=O)O (configuration not stated)
inactive: [16] 95 % of control | dose: 120.0 mg/kg/injection, schedule: Q01DX005 (ip), vehicle: Klucel (hydroxypropylcellulose) (HPC) 95 % of control | dose: 240.0 mg/kg/injection, schedule: Q01DX005 (ip), vehicle: Klucel (hydroxypropylcellulose) (HPC) 93 % of control

CSC1=NC(=S)C(C)(C)NN1
inactive: dose: 100.0 mg/kg/injection, schedule: Q04DX002 (ip), vehicle: Klucel (hydroxypropylcellulose) (HPC) 104 % of control

CN(C)CC(CN(C)C)C(=O)c1ccc(Oc2ccc(Cl)c(Cl)c2)cc1
inactive: dose: 1.88 mg/kg/injection, schedule: Q01DX005 (ip), vehicle: saline 107 % of control | dose: 3.75 mg/kg/injection, schedule: Q01DX005 (ip), vehicle: saline 109 % of control | dose: 7.5 mg/kg/injection, schedule: Q01DX005 (ip), vehicle: saline 117 % of control

CCCCN(CCCC)CC(O)c1c(OC)c2cc(Cl)ccc2c2ccc(Cl)cc12 (configuration not stated)
inactive: [4] 94 % of control | [5] 100 % of control

C[C@H]1CC(=O)C[C@H]2CCCCN21
inactive: dose: 12.5 mg/kg/injection, schedule: Q01DX005 (ip), vehicle: saline 103 % of control | dose: 25.0 mg/kg/injection, schedule: Q01DX005 (ip), vehicle: saline 105 % of control | dose: 50.0 mg/kg/injection, schedule: Q01DX005 (ip), vehicle: saline 101 % of control

CCN(CC)C(=O)Cn1cc([N+](=O)[O-])sc1=NC(=O)c1ccco1
inactive: [14] 100 % of control | [15] 101 % of control
